Source: US10869493B2, “Reduced-sweetener products, flavoring mixtures for said reduced-sweetener products and process for the production of products of this type” (SYMRISE AG, priority 2009, dated 2020)

Key:
[1] = Stability of phyllodulcin content under elevated thermal stress (HPLC, UV detection); assay type: physicochemical; conditions: 100 mg/l phyllodulcin in aqueous phosphate buffer pH 9, stored at 40° C., compared to the same quantity as extract
Protocol: The exemplary extract was tested for stability under an elevated thermal stress in comparison to pure phyllodulcin. A solution of 100 mg/l of phyllodulcin and 1.38% of the exemplary ethanolic extract (corresponds to 100 mg of phyllodulcin) in an aqueous phosphate buffer, adjusted to pH 9, was tested immediately after preparation and then at regular weekly intervals for its phyllodulcin content. In this respect, an aliquot of the respective test solution was separated in an HPLC installation (RP phase) and quantified by UV detection compared to a calibration with pure phyllodulcin. The samples were stored at 40° C. in closed glass vessels to prevent evaporation. The phyllodulcin contents of the test solutions are plotted against time in FIG. 1.

panelists = assay: Determination of the sucrose equivalence using a comparative series of sucrose concentrations in water; assay type: in vivo, human; conditions: concentration used in preparation C (1 ppm), method of Application example 1, first part
Excerpt: The sucrose equivalence ratio of the sucrose equivalence of the concentration of the substances or substance of group (i) to the sucrose equivalence of the concentration of the substance or substances of group (ii) in the corresponding flavoring mixture (and in other mixtures, cf. further below), is established as follows: • 1. A comparative series of different sucrose concentrations in water is produced. Preferred concentrations are 0; 0.25; 0.5; 0.75; 1; 1.5; 2; 3; 4 and 5% by weight sucrose in water. Other concentrations, in particular higher concentrations, can optionally also be used for the comparative series. • 2. […] The determined sucrose equivalence is produced from the average of individual gradings by the individual panelists. • 6. The dilution ratio is then determined, using which solution 1 can be set at a sucrose equivalence of 2% by weight sucrose in water. […] It is of course sensible to have the determined dilution ratio tested once more by the panelists. • 7. Solution 2 (containing the compound(s) of group (ii)) is then diluted in the dilution ratio determined under 6. • 8. Subsequently, the dilute solution 2 is also tasted and compared to the sucrose test series, graded by the panelists and a corresponding sucrose equivalence value is determined (analogously to points 4. and 5.). • 9. […]

SMILES	Decomposition of phyllodulcin over time (FIG. 1) [1]	sucrose equivalence alone in water (panelists)
COc1ccc([C@H]2Cc3cccc(O)c3C(=O)O2)cc1O [phyllodulcin]	decomposed more rapidly	–
COc1ccc(CCC(=O)c2c(O)cc(O[C@@H]3O[C@H](CO)[C@@H](O)[C@H](O)[C@H]3O[C@@H]3O[C@@H](C)[C@H](O)[C@@H](O)[C@H]3O)cc2O)cc1O [neohesperidin dihydrochalcone]	–	approximately 0.5%
